Test results reported in patent US9663479B2, “γ-aminobutyric acid (GABA) analogues for the treatment of pain and other disorders” (Novassay S.A., priority 2013, dated 2017).
pIC50: −log10 of the molar value.

System: human recombinant CACNA2D1 (Voltage-Gated Calcium Channel subunit α2δ-1 fragment)
Test: Biacore surface plasmon resonance kinetic binding analysis on immobilised CACNA2D1
Conditions: SPR, CM5 chip, BSA reference subtracted
From the text: Method for determining kinetic binding parameters (association and dissociation rates) and affinities (KD) of GABA analogues to α2δ-1subunits.
It is well known in the art that binding affinity can be expressed as KD or equilibrium dissociation constant, whereby increasing binding affinity correlates with decreasing KD, which can be calculated from kinetic binding constants. Kinetic binding analysis of GABA analogues to α2δ-1subunits can be determined by surface plasmon resonance technology applied in Biacore™ SPR instruments (Biacore, GE Healthcare, Uppsala). Kinetic association rates (ka; k-on) and dissociation rates (kd; k-off) are obtained. Equilibrium dissociation constant (KD; affinity) values are calculated as k-off/k-on.
This example discloses that the GABA analogues ((1R,5S,6S)-6-((1H-tetrazol-5-yl)methyl)-3-ethylbicyclo[3.2.0]hept-3-en-6-yl)methanamine (“Test Compound”: prepared as described in Example 2) and (1R,5S,6S)-6-(aminomethyl)-3-ethylbicyclo[3.2.0]hept-3-en-6-yl]acetic acid (“Reference Compound”: prepared as described in WO 2010/079668 and US 2012/0071685A1) are capable of binding to a recombinant fragment of human Voltage-Gated Calcium Channel subunit (α2δ-1, CACNA2D1). […]

SMILES	Specific binding to human CACNA2D1 recombinant protein
CCC1=C[C@@H]2[C@H](C1)C[C@]2(CN)CC(=O)O [Reference Compound, reference compound]	able to specifically bind
CCC1=C[C@@H]2[C@H](C1)C[C@]2(CN)Cc1nnn[nH]1 [Test Compound, ((1R,5S,6S)-6-((1H-tetrazol-5-yl)methyl)-3-ethylbicyclo[3.2.0]hept-3-en-6-yl)methanamine]	able to specifically bind

Target: Human Cav1.2/β3/α2δ-1 Calcium Channel Membranes (α2δ-1 subunit) (Homo sapiens (Human), UniProt P54289)
Test: [3H]gabapentin scintillation proximity binding assay on calcium channel α2δ-1 subunit membranes
Conditions: not given
Experimental: This test was carried out in the following way.
Calcium Channel α2δ-1 Subunit Binding Assay
Human Cav1.2/β3/α2δ-1 Calcium Channel Membranes (Chantest) were thawed on ice, aliquotted and stored at −80° C. for subsequent use. Membranes were diluted to 200 μg/ml (3 μg/well final assay concentration (FAC)) in assay buffer (10 mM HEPES (Sigma), (pH7.4)). The [^3H]GBP (Perkin Elmer) stock solution was stored at −20° C. [^3H]GBP was diluted to 40 nM (10 nM FAC) in assay buffer. SPA beads (Perkin Elmer) were re-suspended at 100 mg/ml in 10 mM HEPES (pH 7.4). Beads were diluted to 40 mg/ml (0.6 mg/well FAC) in assay buffer. Nonspecific binding (NSB) was generated using an excess of pregabalin (Tocris). Pregabalin was solubilized in Milli-Q H2O at 10 mM. 10 mM pregabalin was diluted to 400 μM (100 μM FAC) in assay buffer.
Compounds were diluted to […] then half log diluted. These were then diluted 1:100 in assay buffer to a 4× assay concentration (1 μM FAC top dilution).
SPA beads 15 μl; membranes 15 μl; pregabalin or assay buffer/test compound 15 μl and [^3H]GBP 15 μl were added to a white 96 well isoplate, (Perkin Elmer). The assay plate was sealed and mixed for 10 s on a plate shaker then placed into a plate rack and slotted into the reader stacker.
The NSB values obtained by adding 100 μM pregabalin were subtracted from values obtained for compounds to generate a specific binding value. Specific binding in counts per minute (cpm) were plotted against compound concentration (M) and fitted using a 4 parameter logistic equation.

Chain of Human Cav1.2/β3/α2δ-1 Calcium Channel Membranes (α2δ-1 subunit) (P54289 25-956): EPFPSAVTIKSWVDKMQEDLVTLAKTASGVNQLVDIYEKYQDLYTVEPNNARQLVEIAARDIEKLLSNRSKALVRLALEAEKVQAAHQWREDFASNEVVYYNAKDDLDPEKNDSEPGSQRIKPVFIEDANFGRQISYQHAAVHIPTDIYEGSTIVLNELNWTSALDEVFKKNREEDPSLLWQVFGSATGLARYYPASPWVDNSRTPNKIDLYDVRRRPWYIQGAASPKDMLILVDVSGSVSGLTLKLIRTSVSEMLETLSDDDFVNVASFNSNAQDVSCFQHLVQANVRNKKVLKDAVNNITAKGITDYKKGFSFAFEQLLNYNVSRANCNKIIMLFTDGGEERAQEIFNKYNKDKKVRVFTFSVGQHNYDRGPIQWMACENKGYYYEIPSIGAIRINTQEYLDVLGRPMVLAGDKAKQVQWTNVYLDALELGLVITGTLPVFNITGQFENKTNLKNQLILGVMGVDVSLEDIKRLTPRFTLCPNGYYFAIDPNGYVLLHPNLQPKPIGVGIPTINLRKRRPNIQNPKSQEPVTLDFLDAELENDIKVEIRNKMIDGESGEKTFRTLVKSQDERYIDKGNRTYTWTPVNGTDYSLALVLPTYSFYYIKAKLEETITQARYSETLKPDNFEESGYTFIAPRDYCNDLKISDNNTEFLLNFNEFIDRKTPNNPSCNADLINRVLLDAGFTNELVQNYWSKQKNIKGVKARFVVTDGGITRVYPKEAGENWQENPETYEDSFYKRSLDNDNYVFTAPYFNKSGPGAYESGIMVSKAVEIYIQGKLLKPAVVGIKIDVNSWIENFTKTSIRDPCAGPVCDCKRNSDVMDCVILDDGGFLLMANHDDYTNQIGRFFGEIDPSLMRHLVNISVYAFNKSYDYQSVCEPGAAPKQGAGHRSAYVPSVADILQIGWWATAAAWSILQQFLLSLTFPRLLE
Chain of Human Cav1.2/β3/α2δ-1 Calcium Channel Membranes (α2δ-1 subunit) (P54289 957-1103): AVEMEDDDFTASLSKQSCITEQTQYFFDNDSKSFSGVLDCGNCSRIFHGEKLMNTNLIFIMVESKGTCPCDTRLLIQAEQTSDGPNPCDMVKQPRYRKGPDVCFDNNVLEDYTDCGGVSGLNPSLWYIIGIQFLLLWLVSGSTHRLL
Chain of Human Cav1.2/β3/α2δ-1 Calcium Channel Membranes (α2δ-1 subunit) (Q13936 whole entry partner): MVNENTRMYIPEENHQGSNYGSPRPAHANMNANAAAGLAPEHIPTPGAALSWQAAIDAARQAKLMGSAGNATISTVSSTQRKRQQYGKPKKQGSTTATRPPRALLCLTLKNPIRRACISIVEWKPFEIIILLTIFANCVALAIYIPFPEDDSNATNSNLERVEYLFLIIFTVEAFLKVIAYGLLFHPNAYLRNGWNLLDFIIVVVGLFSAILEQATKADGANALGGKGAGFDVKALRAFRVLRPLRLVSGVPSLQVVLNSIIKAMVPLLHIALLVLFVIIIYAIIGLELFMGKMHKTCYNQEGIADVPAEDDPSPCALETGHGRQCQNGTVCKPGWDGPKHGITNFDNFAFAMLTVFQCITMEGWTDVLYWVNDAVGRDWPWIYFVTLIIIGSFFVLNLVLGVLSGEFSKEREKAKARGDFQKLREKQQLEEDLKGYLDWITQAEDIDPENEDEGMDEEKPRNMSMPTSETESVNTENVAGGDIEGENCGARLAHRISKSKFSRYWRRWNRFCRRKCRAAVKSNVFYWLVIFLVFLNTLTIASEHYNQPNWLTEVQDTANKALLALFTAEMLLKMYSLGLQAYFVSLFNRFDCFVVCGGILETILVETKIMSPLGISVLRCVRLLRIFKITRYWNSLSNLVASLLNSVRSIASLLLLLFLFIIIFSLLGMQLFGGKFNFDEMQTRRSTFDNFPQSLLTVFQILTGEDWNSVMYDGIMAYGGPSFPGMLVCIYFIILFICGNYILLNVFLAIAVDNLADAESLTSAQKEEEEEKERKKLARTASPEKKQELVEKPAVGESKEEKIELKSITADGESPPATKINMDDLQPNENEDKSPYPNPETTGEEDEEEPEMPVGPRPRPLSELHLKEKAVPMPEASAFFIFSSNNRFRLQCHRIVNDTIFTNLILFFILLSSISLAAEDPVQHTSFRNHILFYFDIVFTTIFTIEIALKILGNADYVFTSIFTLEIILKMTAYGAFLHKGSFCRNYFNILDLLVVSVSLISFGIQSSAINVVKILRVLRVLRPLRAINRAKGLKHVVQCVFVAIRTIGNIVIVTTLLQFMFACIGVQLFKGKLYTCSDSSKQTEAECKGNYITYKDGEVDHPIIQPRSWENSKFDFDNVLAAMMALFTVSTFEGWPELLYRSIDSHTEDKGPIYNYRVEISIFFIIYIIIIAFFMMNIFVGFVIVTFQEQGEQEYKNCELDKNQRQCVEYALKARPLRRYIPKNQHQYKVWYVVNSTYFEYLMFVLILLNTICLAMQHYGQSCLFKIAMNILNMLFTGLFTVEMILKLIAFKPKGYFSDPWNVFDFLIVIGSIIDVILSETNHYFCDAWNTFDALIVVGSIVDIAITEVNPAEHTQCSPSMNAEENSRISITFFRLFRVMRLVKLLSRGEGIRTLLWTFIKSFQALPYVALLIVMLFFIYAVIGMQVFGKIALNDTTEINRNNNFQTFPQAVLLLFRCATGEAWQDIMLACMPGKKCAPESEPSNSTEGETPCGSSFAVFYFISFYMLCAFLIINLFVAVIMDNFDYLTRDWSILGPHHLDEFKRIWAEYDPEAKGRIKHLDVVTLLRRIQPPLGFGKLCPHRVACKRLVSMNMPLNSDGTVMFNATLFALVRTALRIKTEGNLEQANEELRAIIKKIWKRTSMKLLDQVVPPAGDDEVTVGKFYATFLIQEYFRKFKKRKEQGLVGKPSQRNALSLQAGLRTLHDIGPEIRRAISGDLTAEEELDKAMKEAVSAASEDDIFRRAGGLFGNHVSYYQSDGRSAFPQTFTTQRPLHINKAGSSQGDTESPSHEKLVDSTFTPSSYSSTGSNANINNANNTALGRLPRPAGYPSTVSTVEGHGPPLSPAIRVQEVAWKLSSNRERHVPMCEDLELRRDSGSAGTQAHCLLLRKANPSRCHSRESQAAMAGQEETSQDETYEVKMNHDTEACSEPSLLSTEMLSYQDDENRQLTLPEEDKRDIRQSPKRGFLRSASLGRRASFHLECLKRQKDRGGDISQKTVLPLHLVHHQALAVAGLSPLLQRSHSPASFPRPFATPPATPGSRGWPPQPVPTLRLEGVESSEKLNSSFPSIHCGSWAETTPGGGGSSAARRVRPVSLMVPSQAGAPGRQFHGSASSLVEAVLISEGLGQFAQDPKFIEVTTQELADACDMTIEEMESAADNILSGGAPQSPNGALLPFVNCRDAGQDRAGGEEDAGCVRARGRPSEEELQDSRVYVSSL
Chain of Human Cav1.2/β3/α2δ-1 Calcium Channel Membranes (α2δ-1 subunit) (P54284 whole entry partner): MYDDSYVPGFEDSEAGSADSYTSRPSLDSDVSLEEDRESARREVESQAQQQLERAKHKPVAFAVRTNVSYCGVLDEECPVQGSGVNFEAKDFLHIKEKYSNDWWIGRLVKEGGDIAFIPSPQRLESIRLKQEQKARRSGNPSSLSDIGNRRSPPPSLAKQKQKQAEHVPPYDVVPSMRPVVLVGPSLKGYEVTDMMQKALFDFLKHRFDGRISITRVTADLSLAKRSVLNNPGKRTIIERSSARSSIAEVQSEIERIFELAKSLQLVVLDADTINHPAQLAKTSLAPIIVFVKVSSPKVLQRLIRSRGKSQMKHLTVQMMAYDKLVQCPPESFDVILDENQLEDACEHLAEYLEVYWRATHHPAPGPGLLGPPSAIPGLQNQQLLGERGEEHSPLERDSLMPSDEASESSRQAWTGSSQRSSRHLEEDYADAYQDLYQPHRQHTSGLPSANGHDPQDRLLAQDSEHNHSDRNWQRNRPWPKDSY

SMILES	pIC50
CCNC[C@]1(Cc2nnn[nH]2)C[C@H]2CC(CC)=C[C@H]21 (racemic) [Formula 1 (Racemic), Racemic N-(((1R,5S,6S)-6-((1H-tetrazol-5-yl)methyl)-3-ethylbicyclo[3.2.0]hept-3-en-6-yl)methyl)ethanamine]	≤ 6.30
CCC1=CC2C(C1)C[C@@]2(CN)Cc1nn[nH]n1 (single isomer, unassigned) [Formula 2 peak 1 (Chiral)]	6.78
CCC1=C[C@@H]2[C@H](C1)C[C@]2(CN)Cc1nc(=O)o[nH]1 (racemic) [Formula 3 (Racemic), Racemic 3-(((1R,5S,6S)-6-(aminomethyl)-3-ethylbicyclo[3.2.0]hept-3-en-6-yl)methyl)-1,2,4-oxadiazol-5(4H)-one]	7.72
CC(C)CC(CN)CC(=O)O (stereo not drawn) [Pregabalin, reference compound]	7.64
CCC1=C[C@@H]2[C@H](C1)C[C@]2(CN)Cc1nn[nH]n1 (racemic) [Formula 2 (Racemic), Racemic ((1R,5S,6S)-6-((1H-tetrazol-5-yl)methyl)-3-ethylbicyclo[3.2.0]hept-3-en-6-yl)methanamine]	8.38
CCC1=CC2C(C1)C[C@]2(CN)Cc1nn[nH]n1 (single isomer, unassigned) [Formula 2 peak 2 (chiral)]	8.68

Target: α2δ-1 sub-unit (Homo sapiens (Human), UniProt P54289)
Test: not given
Conditions: read-out: Literature IC50 nM; binding to α2δ-1 sub-unit, literature value; cited from earlier work

Chain of α2δ-1 sub-unit (P54289 whole entry, looked up): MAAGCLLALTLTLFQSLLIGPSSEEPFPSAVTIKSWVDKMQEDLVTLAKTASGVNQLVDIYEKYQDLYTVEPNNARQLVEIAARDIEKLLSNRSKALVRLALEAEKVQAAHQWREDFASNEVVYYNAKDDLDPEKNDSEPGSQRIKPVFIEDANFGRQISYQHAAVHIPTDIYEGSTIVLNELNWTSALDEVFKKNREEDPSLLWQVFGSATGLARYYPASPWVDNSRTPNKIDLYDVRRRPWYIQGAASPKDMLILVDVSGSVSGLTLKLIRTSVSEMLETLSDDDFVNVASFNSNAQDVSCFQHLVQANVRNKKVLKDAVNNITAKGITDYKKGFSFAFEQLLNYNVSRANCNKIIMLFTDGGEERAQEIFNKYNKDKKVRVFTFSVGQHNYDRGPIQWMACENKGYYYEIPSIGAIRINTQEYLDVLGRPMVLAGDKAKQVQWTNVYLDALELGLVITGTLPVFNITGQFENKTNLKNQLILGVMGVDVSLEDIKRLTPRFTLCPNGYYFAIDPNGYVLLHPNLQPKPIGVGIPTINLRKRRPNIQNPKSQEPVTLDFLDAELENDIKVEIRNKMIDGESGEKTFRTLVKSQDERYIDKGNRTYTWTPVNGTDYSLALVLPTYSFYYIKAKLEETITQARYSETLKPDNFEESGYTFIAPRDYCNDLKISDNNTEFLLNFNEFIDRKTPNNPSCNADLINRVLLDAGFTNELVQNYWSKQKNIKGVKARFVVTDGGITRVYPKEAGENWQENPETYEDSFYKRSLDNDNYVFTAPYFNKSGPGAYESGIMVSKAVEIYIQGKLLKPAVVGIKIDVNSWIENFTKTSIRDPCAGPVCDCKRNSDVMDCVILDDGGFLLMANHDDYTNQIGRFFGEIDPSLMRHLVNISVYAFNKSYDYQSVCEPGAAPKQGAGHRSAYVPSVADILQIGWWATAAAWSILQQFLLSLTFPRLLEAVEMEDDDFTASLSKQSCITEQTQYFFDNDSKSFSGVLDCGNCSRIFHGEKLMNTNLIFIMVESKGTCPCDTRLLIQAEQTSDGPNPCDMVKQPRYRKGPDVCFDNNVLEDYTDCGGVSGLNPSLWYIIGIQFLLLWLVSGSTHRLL

SMILES	IC50 [nM]
CC(C)CC(CN)CC(=O)O (stereo not drawn) [Pregabalin, reference compound]	80
